From patent publication US20230202992A1, “PHARMACEUTICAL COMPOSITION FOR PREVENTING OR TREATING SMALL-CELL LUNG CANCER ASSOCIATED WITH RON MUTANTS AND METHOD USING SAME” (WELLMARKER BIO CO., LTD., priority 2020, published 2023)

Key:
[1] = system: H417 cell line (small cell lung cancer cell line of a mutation RONΔ155 type); assay: Cell killing efficacy in small cell lung cancer cell line (PI staining, FACS); format: cell-based; details: H417 cells (mRONΔ155), 1 μM, 72 hours, propidium iodide, FIG. 1
Procedure: The H417 cell line, which is a small cell lung cancer cell line of a mutation RONΔ155 type, was counted, and 2×10^5 cells were seeded in a 60 mm dish, respectively, and 24 hours later, treated with 1 μM of each of the compounds synthesized in Example 1 (WM-S1-030), Example 2, Example 3, Example 4, and Example 5 for 72 hours. As a positive control, a known RON inhibitor, BMS-777607 compound (1 μM), was used. BMS-777607 is N-{4-[(2-amino-3-chloro-4-pyridinyl)oxy]-3-fluorophenyl}-4-ethoxy-1-(4-fluorophenyl)-2-oxo-1,2-dihydro-3-pyridinecarboxamide, which is compound 1 disclosed in U.S. Pat. No. 8,536,200 B2. BMS-777607 is a well known RON inhibitor.
After 72 hours, all of the medium was transferred to a 15 mL conical tube and washed once with 1×PBS (phosphate buffered saline), and then the cells were harvested. Thereafter, the supernatant was removed by centrifugation at 1,000 rpm for 3 minutes, and propidium iodide (PI) was diluted in a FACS (Fluorescence-Activated Cell Sorting) buffer (PBS+2% FBS) at a ratio of 1:1000. The prepared buffer was added adequately depending on the number of cells, and then it was transferred to a FACS tube and reacted for 10 minutes. Thereafter, it was measured using a cytometer (FACS Analyzer).

cleaved caspase-3 = assay: Protein expression change in tumor tissue of H417 transplanted animal model, immunochemical staining; format: in vivo; details: H417 transplanted mouse model, 3 mpk, 10 mpk, 30 mpk, FIG. 3
Procedure: (§1) WM-S1-030 synthesized in Example 1 above was administered at each concentration (3 mpk, 10 mpk, 30 mpk) to a mouse model transplanted with the H417 cell line, which is a small cell lung cancer cell line of a mutation RONΔ155 type, and then the tumor was extracted, and the expression changes of the proteins were analyzed by immunochemical staining.
(§2) Specifically, paraffin slides were prepared using tissues isolated from the sacrificed mice. The tissue sections were deparaffinized and rehydrated, immersed in the target recovery buffer 1×(ScyTek Laboratories, Cat #CBB999) and heated for 15 minutes to perform an antigen recovery process. After the reaction, the tissue sections were washed in Tris buffered saline-0.05% Tween 20 (TBS-T)(T&I, BTT-9310) for 5 minutes, and then the reaction was performed with a non-specific antibody reaction blocking reagent (vector, SP-5035) for 1 hour.
(§3) The tissue sections were cultured at 4° C. overnight with mRON (Abcam, ab52927, 1:50), pTyr-mRON (Mybioscience, MBS462024, 1:100), cleaved caspase-3 (Asp175XR&D Systems, MAB835, 1:50) and then washed with TBS-T for 5 minutes, and then endogenous peroxidase activity was blocked using a peroxidase blocking reagent (Cellmarque, 925B-05). Thereafter, the tissue sections were washed with TBS-T for 5 minutes and then incubated with a rabbit secondary antibody (vector, PK-6101) at room temperature for 1 hour. […]

pTyr-mRON = assay: as above; format: in vivo; details: H417 transplanted mouse model, 3 mpk, 10 mpk, 30 mpk, FIG. 3
Procedure: as §1, §2, §3

[2] = system: H417 cell line (mRONΔ155) transplanted tumor; assay: Tumor growth inhibition in H417 cell line transplanted animal model; format: in vivo, mouse; details: BALB/c-nude mice transplanted with H417, 30 mpk, oral, once a day for 3 weeks; FIG. 2
Procedure: It was confirmed whether tumor growth was inhibited by administering WM-S1-030 synthesized in Example 1 above at a dose of 30 mpk to a mouse model transplanted with the H417 cell line, which is a small cell lung cancer cell line of a mutation RONΔ155 type. Specifically, 5-week-old female BALB/c-nude mice were purchased and acclimatized for 1 week. Thereafter, H417 (5×10^6 cells/mouse), a small cell lung cancer cell line of a mutation RONΔ155 type, was diluted in PBS (phosphate buffered saline), and 100 μL was injected subcutaneously into the right dorsal side of the mouse. When the size of the tumor reached about 100 mm^3, WM-S1-030 was orally administered. At this time, the group orally administered with the vehicle was used as a negative control. The drug was administered once a day for 3 weeks, and the tumor size and body weight were measured twice a week. After the drug administration was completed, the mice were euthanized, the tumor was extracted, and the weight was measured.

Row | SMILES | cell death (cell killing efficacy) [1] | expression of cleaved caspase-3 (cleaved caspase-3) | expression of pTyr-mRON (pTyr-mRON) | tumor growth [2]
1 | CCOc1ccn(-c2ccc(F)cc2)c(=O)c1C(=O)Nc1ccc(Oc2ccnc(N)c2Cl)c(F)c1 [BMS-777607, N-{4-[(2-amino-3-chloro-4-pyridinyl)oxy]-3-fluorophenyl}-4-ethoxy-1-(4-fluorophenyl)-2-oxo-1,2-dihydro-3-pyridinecarboxamide] | low |  |  | 
2 | CCOc1ccn(-c2ccc(F)cc2)c(=O)c1C(=O)Nc1ccc(Oc2ccnc3cc(-c4ccc(CN5CCOCC5)cn4)sc23)c(F)c1.Cl [Example 1, 4-ethoxy-N-[3-fluoro-4-({2-[5-(morpholinomethyl)pyridin-2-yl]thieno[3,2-b]pyridin-7-yl}oxy)phenyl]-1-(4-fluorophenyl)-2-oxo-1,2-dihydropyridine-3-carboxamide hydrochloride] |  | induced | decreased | significantly inhibited
